Reference: patent publication US4792569A, “Anticonvulsant phenethyl sulfamates” (McNeilab, Inc., priority 1987, dated 1988)

System: tonic extensor seizure
Test: maximal electroshock test (MES), block of tonic extensor seizure in mice
Type: in vivo, male albino mice of the Swiss Webster strain
Method: The compounds of formula (I) are useful as anticonvulsant agents. The anticonvulsant activity of the subject compounds was determined using a standard "maximal electroshock test" (MES). In this test, activity is indicated by a block of the tonic extensor seizure caused by application of an electric shock to mice via corneal electrodes, as described by Swinyard et al. in J. Pharmacol. Exptl. Therap. 106, 319 (1952). A more recent description of current anticonvulsant drug screening is given in Swinyard et al. in Epilepsia 19, 409 (1978). Non-fasted male albino mice of the Swiss Webster strain (Royal-Hart Laboratories, New Hampton, N.Y.) weighing 18-24 grams were used in this test. Six to eight groups of ten mice each were used per ED50 determination. The test compounds were administered as aqueous solutions or suspensions prepared with Tween 80 and water. Testing was conducted at 30 minutes following intraperitoneal injection and at 60 minutes following oral administration of the test compound. A group of ten mice injected with saline 10 ml/kg i.p. and tested 30 minutes later served as controls. ED50 's were calculated using a computerized probit analysis procedure.

SMILES	MES Test % Inhibition (100 mg/kg, 30 min i.p.)	MES Test % Inhibition (200 mg/kg, 60 min p.o.)	MES Test % Inhibition (500 mg/kg i.p. in 30 min)
NS(=O)(=O)OCCc1ccccc1 [Example 1b, Phenethylsulfamate]	90%	100%	
NS(=O)(=O)OCCc1cccc(C(F)(F)F)c1 [Example 2, 3-(Trifluoromethyl)phenethylsulfamate]	70%	100%	
COc1ccc(CCOS(N)(=O)=O)cc1OC [Example 3, 3,4-Dimethoxyphenethyl sulfamate]			30%
Cc1ccccc1CCOS(N)(=O)=O [Example 5, 2-Methylphenethyl sulfamate]	90%	70%	
NS(=O)(=O)OCCc1cccc([N+](=O)[O-])c1 [Example 6, 3-Nitrophenethylsulfamate]	80%	40%	
